The nature of series [1]: Stability of HSS in the presence of iron and copper ions (UV absorbance at 319 nm). The class given is physicochemical. Particulars: acetate buffer pH 6.5/ethanol, room temperature. As for the experimental part: A base buffer solution was prepared by dissolving 13.608 g of sodium acetate in 1000 ml water and then adjusting the pH to 6.5 with acetic acid to form a 0.1 M acetate solution and then combining 75 parts by weight of this solution with 25 parts by weight ethanol.
A copper sulfate solution was prepared by dissolving 24.968 mg of copper sulfate (CuSO4.5H2O) in 100 ml of the base buffer solution.
A ferric sulfate solution was prepared by dissolving 16.22 mg of […] in 100 ml of the base buffer solution.
Finally a 100 μM test solution of HSS was prepared by dissolving 27.8 mg of HSS in 10 ml of the base buffer solution and then diluting 0.1 ml of this solution to 10 ml with additional base buffer solution.
Two test solutions were prepared as follows:
Copper Stability: 0.1 ml of the 100 μM solution of HSS was combined with 0.1 ml of the 10 μM CuSO4 solution in a 10 ml volumetric flask and additional base buffer solution added to make up to volume (to 10 ml). […]
The two test solutions and a sample of the HSS solution were then evaluated to assess what, if any, auto-oxidation of the HSS occurred in the presence of Cu^2+ and Fe^3+ ions. Stability or instability was evaluated by monitoring the absorbance at 319 nm for HSS at room temperature using a Shimadzu spectrophotometer.

Series [2] in a line: Stabilization of colored shampoo under fluorescent light (Delta E). The note with it: 0.4 g HSS in 120 g shampoo, ambient temperature, 4 weeks. The procedure: The stabilizer compound according to Example 1, Synoxyl™ HSS, was added to a commercial shampoo formulation in order to evaluate its ability to reduce the amount of dye fading following exposure to fluorescent lighting. The sample was prepared by dissolving 0.4 g of HSS in 5 ml of ethanol and then adding the solution to 120 g of Suave® Natural Fresh Mountain Strawberry Shampoo with agitation and agitated for 15 minutes. A sample of the unmodified shampoo and the modified shampoo are then placed into 20 ml glass scintillation vials. Both sets of vials were weathered under fluorescent light aging at ambient temperature for 4 weeks. The L*a*b coordinates before and after exposure are measured using X-Rite 938 Spectro-densitometer. Color change is expressed as Delta E (ΔE) which is calculated by the formula: ΔE=[(ΔL*)^2+(Δa*)^2+(Δb*)^2]^1/2
Following the 4 week exposure the change in color, Delta E, was 21.6 for the unmodified shampoo and 12.3 for the modified shampoo.

Molecules are shown by their SMILES.

In the case of `COc1cc(C=C(C(C)=O)C(C)=O)cc(OC)c1OC` [HSS, 3-(3,4,5-trimethoxybenzylidene)-2,4-pentanedione], in series [1], the “stability (auto-oxidation) in the presence of iron and copper ions” value is “stable irrespective of the presence of iron and copper ions”. Further, the “change in color, Delta E” value in series [2] is recorded as 12.3.

The record behind these values is US8617528B2, “Compositions and methods for stabilizing ingredients using 2,4-pentanedione compounds” (Sytheon Ltd., priority 2010, dated 2013).
